What was measured:
[1] = system: MDA-MB-468; assay: NCI-60 single dose screen, sulforhodamine B; format: cell-based, human; details: Breast cancer MDA-MB-468; single dose 10^−5 M
Description: (§1) In this research, all of the newly synthesised quinazolinones were subjected to in vitro anticancer screening by the National Cancer Institute (USA) against 60 different human cell lines including leukaemia, non-small cell lung cancer, colon cancer, CNS cancer, melanoma, ovarian cancer, renal cancer, prostate cancer, and breast cancer. The tested compounds were evaluated at a single dose (10^−5 M). […] Regarding the benzenesulfonamide counterparts, the introduction of an electron-withdrawing group on the benzenesulfonamide moiety increased the inhibitory activity on the glioblastoma cell line SNB-75 as depicted by the chloro derivative 5c (GI% = 63.09) which was higher than that of the unsubstituted derivative 5a (GI% = 40.06) and the methyl derivative 5b (GI% = 33.03).
(§2) 1. Cytotoxicity screening against a panel of 60 human tumor cell lines
(§3) All the compounds were selected for NCI-60 Human Tumor Cell Lines Screen by the Developmental Therapeutics Program (DTP) at the National Cancer Institute (NCI), Maryland, USA. The operation of this screen utilizes 60 different human tumor cell lines, representing leukemia, non-small-cell lung cancer, colon cancer, CNS cancer, melanoma, ovarian cancer, renal cancer, prostate cancer and breas t cancer.
(§4) The compounds were supplied as dry powder and a single concentration is tested in all 60 cell lines at a single dose of 10 µM solution in dimethyl sulfoxide (DMSO) using Sulforhodamine B assay. Briefly, cells are seeded in 96 well plates at an appropriate density and incubated for 1 day. After 1 day, some of the plates are processed to determine the density time zero. To the remaining plates, compounds are added at 10 µM concentration. Plates are incubated a further 2 days, then fixed and staine d with sulphorhodamine B. Growth inhibition is calculated relative to cells without drug treatment and the time zero control. The use of a time zero control allows the determination of cell kill as well as net growth inhibition.
(§5) 2. Detection of IC50 against MDA-MB-435, SNB-75 cell lines and normal cell line WI -38.
(§6) Antiproliferative activities of 5c in melanoma cell line MDA-MB-435, glioblastoma cell line SNB-75 and normal cell line WI -38 and that of 8a in melanoma cell line MDA-MB-435 and normal cell line WI-38 were measured spectrophotometrically using in vitro MTT based toxicology assay kit (catalog no. M -5655, M-8910) (Sigma Aldrich), according to the manufacturer’s protocol. The three examined cell lin es were obtained from American Type Culture Collection (ATCC). Briefly, cells were platted (cells density 1.2 – 1.8 × 10,000 cells/well) in a volume of 100 µl complete growth medium + 100 μl of the tested compound per well in a 96-well plate for 48 h before the MTT assay. The cultures were removed from incubator into laminar flow hood then each vial of MTT [M-5655] should be reconstituted with 3 ml of medium or balanced salt solution without phenol red and serum. Reconstituted MTT was added in an amount equal to […]

[2] = system: IGROV1; assay: NCI-60 single dose screen, sulforhodamine B; format: cell-based, human; details: Ovarian cancer IGROV1; single dose 10^−5 M
Description: as §1, §2, §3, §4, §5, §6

[3] = system: HL-60(TB); assay: NCI-60 single dose screen, sulforhodamine B; format: cell-based, human; details: Leukaemia HL-60(TB); single dose 10^−5 M
Description: as §1, §2, §3, §4, §5, §6

[4] = system: MCF7; assay: NCI-60 single dose screen, sulforhodamine B; format: cell-based, human; details: Breast cancer MCF7; single dose 10^−5 M
Description: as §1, §2, §3, §4, §5, §6

[5] = system: SK-OV-3; assay: NCI-60 single dose screen, sulforhodamine B; format: cell-based, human; details: Ovarian cancer SK-OV-3; single dose 10^−5 M
Outline: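 Compounds were tested at a single 10 µM dose (DMSO solution) after cells had been seeded and grown for 1 day. Following 2 further days of exposure, cells were fixed and stained with sulforhodamine B. Growth inhibition is relative to untreated cells and a time-zero control.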

[6] = system: glioblastoma SNB-75 cells; assay: Apoptosis determination, Annexin V-FITC/PI; format: cell-based, human; details: SNB-75, 24 h at IC50 concentration
Description: The apoptotic activity of quinazolinone 5c in melanoma MDA-MB-435 and glioblastoma SNB-75 cell lines was further studied using Annexin V-FITC assay. […]
4. Apoptosis determination
Annexin V fluorescein isothiocyanate (FITC)/PI apoptosis detection kit (BD Biosciences) was used according to the manufacturer’s instructions to measure the apoptotic activity of compound 5c. Melanoma MDA -MB-435 and glioblastoma SNB -75 cells were cultured to a monolayer then treated with the quinazolinone 5c at its IC50 concentration. The cells then were collected by trypsinisation and 0.5×10^6 cells were washed twice with PBS and stained with 5 µL Annexin V-FITC and 5 µL PI in 1Xbinding buffe r for 15 min. at room temperature in the dark.
Analyses were performed using FACS Calibur flow cytometer (BD Biosciences, San Jose, CA).

[7] = system: melanoma cell line MDA-MB-435; assay: Detection of IC50, MTT assay; format: cell-based; details: Homo sapiens, read-out: IC50 (µM)±SD, 50% inhibition of cell viability, Melanoma MDA-MB-435, 48 h
Description: as §5
as §6, with “96-well” for “96-well plate for 48 h before the MTT assay. The cultures were removed from incubator into laminar flow hood then each vial of MTT [M-5655] should be reconstituted with 3 ml of medium or balanced salt solution without phenol red and serum. Reconstituted MTT was added in an amount equal to”
(§7) salt solution without phenol red and serum.

[8] = target: T1, CDK2 (Homo sapiens, UniProt P24941); assay: CDK2 inhibition assay, colorimetric 96-well kit (BPS Bioscience); format: biochemical; details: in vitro kinase inhibition; read-out: IC50 (µM) ± SD against CDK2
T1 construct: purchased BPS Bioscience 79599
Description: It was reported that CDK2 is overexpressed in melanoma[44]^,[45].
CDK2 enzyme inhibition activity was measured for the quinazolinones 5c and 8a using a colorimetric 96-well CDK2 assay kit (BPS Bioscience) (catalog no. 79599), according to the manufacturer's protocol. All the IC50 values were calculated using GraphPad Prism 7.0 Software.
Figure S1. The pharmacokinetic profile of compound 5c using SwissADME web server.
(1 picture or pasted object on this page, not shown here)

[9] = system: normal fibroblast cells WI-38; assay: Cytotoxic activity in normal cells, MTT assay; format: cell-based; details: Homo sapiens, WI-38 normal cells, 48 h, read-out: IC50 (µM) ± SD WI-38
Description: as §5
as §6, with “96-well” for “96-well plate for 48 h before the MTT assay. The cultures were removed from incubator into laminar flow hood then each vial of MTT [M-5655] should be reconstituted with 3 ml of medium or balanced salt solution without phenol red and serum. Reconstituted MTT was added in an amount equal to”
as §7

O=C(CNn1c(COc2ccccc2)nc2ccccc2c1=O)Nc1ccccc1 [Compound 4a, 2-((4-oxo-2-(phenoxymethyl)quinazolin-3(4H)-yl)amino)-N-phenylacetamide]
GI% at 10^−5 M [1]: – (– means GI < 10%) | GI% at 10^−5 M [2]: 19.54% | GI% at 10^−5 M [3]: – (– means GI < 10%) | GI% at 10^−5 M [4]: 15.7%

COc1ccc(NC(=O)CNn2c(COc3ccccc3)nc3ccccc3c2=O)cc1 [Compound 4b, N-(4-methoxyphenyl)-2-((4-oxo-2-(phenoxymethyl)quinazolin-3(4H)-yl)amino)acetamide]
GI% at 10^−5 M [1]: – (– means GI < 10%) | GI% at 10^−5 M [2]: 6.78% | GI% at 10^−5 M [3]: – (– means GI < 10%) | GI% at 10^−5 M [4]: 13.20%

O=C(CNn1c(COc2ccccc2)nc2ccccc2c1=O)Nc1ccc(Cl)cc1 [Compound 4c, N-(4-chlorophenyl)-2-((4-oxo-2-(phenoxymethyl)quinazolin-3(4H)-yl)amino)acetamide]
GI% at 10^−5 M [5]: 4.95% | GI% at 10^−5 M [1]: 11.13% | GI% at 10^−5 M [2]: 19.62% | GI% at 10^−5 M [3]: – (– means GI < 10%) | GI% at 10^−5 M [4]: 10.05%

O=c1c2ccccc2nc(COc2ccccc2)n1NS(=O)(=O)c1ccccc1 [Compound 5a, N-(4-oxo-2-(phenoxymethyl)quinazolin-3(4H)-yl)benzenesulfonamide]
GI% at 10^−5 M [1]: – (– means GI < 10%) | GI% at 10^−5 M [2]: 16.06% | GI% at 10^−5 M [3]: – (– means GI < 10%) | GI% at 10^−5 M [4]: 14.31%

Cc1ccc(S(=O)(=O)Nn2c(COc3ccccc3)nc3ccccc3c2=O)cc1 [Compound 5b, 4-methyl-N-(4-oxo-2-(phenoxymethyl)quinazolin-3(4H)-yl)benzenesulfonamide]
GI% at 10^−5 M [5]: −4.74% | GI% at 10^−5 M [1]: – (– means GI < 10%) | GI% at 10^−5 M [2]: 21.58% | GI% at 10^−5 M [3]: – (– means GI < 10%) | GI% at 10^−5 M [4]: 11.54%

O=c1c2ccccc2nc(COc2ccccc2)n1NS(=O)(=O)c1ccc(Cl)cc1 [Compound 5c, 4-chloro-N-(4-oxo-2-(phenoxymethyl)quinazolin-3(4H)-yl)benzenesulfonamide]
% Necrosis [6]: 8.61% | %Apoptosis Early [6]: 2.65% | %Apoptosis Late [6]: 32.96% | %Apoptosis Total [6]: 44.22% | IC50 [7]: 3.03 ± 0.38 µM | IC50 [8]: 0.63 ± 0.022 µM | GI% at 10^−5 M [1]: 59.61% | GI% at 10^−5 M [2]: 38.26% | GI% at 10^−5 M [3]: 24.32% | GI% at 10^−5 M [4]: 58.11% | IC50 [9]: 62.5 ± 3.5 µM

COc1cc(C=Nn2c(COc3ccccc3)nc3ccccc3c2=O)ccc1O [Compound 6a, 3-((4-hydroxy-3-methoxybenzylidene)amino)-2-(phenoxymethyl)quinazolin-4(3H)-one]
GI% at 10^−5 M [1]: – (– means GI < 10%) | GI% at 10^−5 M [2]: – (– means GI < 10%) | GI% at 10^−5 M [3]: – (– means GI < 10%) | GI% at 10^−5 M [4]: 22.94%

O=c1c2ccccc2nc(COc2ccccc2)n1N=CC=Cc1ccccc1 [Compound 6b, 2-(phenoxymethyl)-3-((3-phenylallylidene)amino)quinazolin-4(3H)-one]
GI% at 10^−5 M [1]: 10.89% | GI% at 10^−5 M [2]: – (– means GI < 10%) | GI% at 10^−5 M [3]: – (– means GI < 10%) | GI% at 10^−5 M [4]: 16.22%

CN1CCN(CC(=O)Nn2c(COc3ccccc3)nc3ccccc3c2=O)CC1 [Compound 8a, 2–(4-methylpiperazin-1-yl)-N-(4-oxo-2-(phenoxymethyl)quinazolin-3(4H)-yl)acetamide]
GI% at 10^−5 M [5]: 22.99% | IC50 [7]: 6.22 ± 0.53 µM | IC50 [8]: 1.74 ± 0.062 µM | GI% at 10^−5 M [1]: 49.06% | GI% at 10^−5 M [2]: 26.87% | GI% at 10^−5 M [3]: 19.74% | GI% at 10^−5 M [4]: 57.64% | IC50 [9]: 37.3 ± 2.1 µM

O=C(CN1CCN(c2ccccc2)CC1)Nn1c(COc2ccccc2)nc2ccccc2c1=O [Compound 8b, N-(4-oxo-2-(phenoxymethyl)quinazolin-3(4H)-yl)-2–(4-phenylpiperazin-1-yl)acetamid]
GI% at 10^−5 M [1]: – (– means GI < 10%) | GI% at 10^−5 M [2]: – (– means GI < 10%) | GI% at 10^−5 M [3]: – (– means GI < 10%) | GI% at 10^−5 M [4]: – (– means GI < 10%)

COc1ccc(N2CCN(CC(=O)Nn3c(COc4ccccc4)nc4ccccc4c3=O)CC2)cc1 [Compound 8c, 2–(4-(4-methoxyphenyl)piperazin-1-yl)-N-(4-oxo-2-(phenoxymethyl)quinazolin-3(4H)-yl)acetamide]
GI% at 10^−5 M [1]: – (– means GI < 10%) | GI% at 10^−5 M [2]: – (– means GI < 10%) | GI% at 10^−5 M [3]: – (– means GI < 10%) | GI% at 10^−5 M [4]: – (– means GI < 10%)

Reference: PMC8843100, “Development of newly synthesised quinazolinone-based CDK2 inhibitors with potent efficacy against melanoma” (Journal of Enzyme Inhibition and Medicinal Chemistry, 2022)
